The results in this text go back to patent EP1094724B1, “USE OF A PHENOL OXIDISING ENZYME IN THE TREATMENT OF TOBACCO” (priority 1998, dated 2000).

The test system of assay [1] is Myceliopthora thermophila laccase (MtL). In words: MtL treatment of tobacco extract, quantitative HPLC of chlorogenic acid, rutin and scopoletin. In kind it is biochemical. To be noted: detection limit CA 2.43, R 1.55, S 0.50 µg/ml. The method, then:
The content of phenolic compounds is analysed by HPLC according to the procedure described below: • Liquid chromatographic system: E.g. Shimadzu SCL-6B System Controller, and two LC-6A Liquid Chromatograph (pumps) or Waters model 600 E • Injector: Shimadzu SIL 6B Autoinjector or Waters 715 Ultra Wisp. UV detector: Shimadzu SPD-6A Photodiode Array UV-VIS detector or Waters Model 481 • Software: CLASS LC10 / CLASS-MXA or Maxima 820 • Column: Supelcosil™ LC-18 25 cm x 4.6 mm (Supelco, #5-8298) or µ Bondapack C198 stainless steel column, 30 cm x 4 mm i.d., 10 µm particle size. • Guard column: none or Guard-Pak from Waters packed with the same material. • Temperature: Ambient • Mobile phase flow: 1.3 ml/min • Injection volume: 20µl • Wavelength: 350 nm • Eluent: Binary gradient (linear) mixture of A: KH2PO4 (28.4 g in 2000 ml de-mineralised water) and B: methanol (please see table 1 and figure 1). The eluent is filtered through a 0.45 µm filter and degassed before use.
Prior to HPLC analysis, the samples were filtered through a 0.45 µm filter or smaller, e.g. a sterile Sartorius Minisart 0.45 µm filter (#16555) or a Millipore Millex-GS 0.22 µm (#SBGS 0 25 SB) to remove the haze/precipitate normally formed during enzyme treatment. Normally, no dilution of the extract/sample was made before HPLC analysis.
For quantitative measurements the following standards were made in the extracting solution: Chlorogenic acid: 20 mg/ml; Scopoletin: 1 mg/ml; Rutin: 0.75 mg/ml.
The mixture was intensely aerated during the reaction time.
"Raw tobacco" was extracted according to the procedure described in Example 8. […] After enzyme treatment, bentonite was added at a concentration of 1 g/L at the temperature of the extract after the laccase treatment (50°C) for 10 minutes. The slurry was clarified at a flow rate of 1 L/min using a continuous centrifuge. The enzyme treated and clarified extract was then concentrated 40 fold by means of reverse osmosis and evaporation. The concentrate was then recombined with the "tobacco residue" by spraying back the extract onto the tobacco residue, and finally dried, resulting in "recombined tobacco material".
Samples of tobacco before and after extraction and recombination with the tobacco extract was analysed for nicotine, reducing sugars, total sugars by means of an Auto Analyzer according to the method previously described, and analysed for chlorogenic acid, rutin, and scopoletin by means of HPLC according the method previously described. The tobacco extract before and after MtL and bentonite treatment was analysed for chlorogenic acid, rutin, and scopoletin by means of HPLC according the method previously described.

Assay [2] concerns the target T1, laccase derived from Trametes villosa, TvL (Trametes villosa, UniProt Q99044).
T1 construct: purchased Novo Nordisk A/S
T1 sequence (Q99044 22-520): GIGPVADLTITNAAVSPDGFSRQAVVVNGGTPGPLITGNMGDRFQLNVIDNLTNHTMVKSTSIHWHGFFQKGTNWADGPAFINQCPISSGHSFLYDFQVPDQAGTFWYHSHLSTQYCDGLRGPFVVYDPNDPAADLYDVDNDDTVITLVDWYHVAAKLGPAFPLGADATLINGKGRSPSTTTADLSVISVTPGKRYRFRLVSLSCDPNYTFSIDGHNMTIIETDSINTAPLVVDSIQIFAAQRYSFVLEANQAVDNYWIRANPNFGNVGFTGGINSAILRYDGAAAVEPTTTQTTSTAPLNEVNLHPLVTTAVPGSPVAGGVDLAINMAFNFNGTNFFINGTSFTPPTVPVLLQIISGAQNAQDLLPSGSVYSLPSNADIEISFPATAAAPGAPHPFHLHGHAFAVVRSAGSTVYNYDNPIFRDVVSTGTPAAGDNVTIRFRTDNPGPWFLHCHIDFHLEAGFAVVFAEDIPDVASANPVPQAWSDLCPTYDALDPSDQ
The assay can be described thus: Effect of laccase on tobacco constituents, UV/Vis spectra before and after treatment (Example 1). In kind it is biochemical. To be noted: 9 mM Na-acetate buffer pH 5.0; 4.8% Ethanol; 0.025 mg/ml of tobacco constituent; 0.016 mg/ml laccase; spectra 190-700 nm every 20 seconds for 5 minutes. The protocol: Tobacco constituents: Nicotine, Chlorogenic acid, Rutin and Scopoletin. Enzyme: Purified laccase derived from Trametes villosa, TvL. Apparatus: HP8452 UV/Vis diode array spectrophotometer, 1 cm quarts cuvette. Buffer: Sodium acetate (Merck)
10 mM acetate buffer was prepared from sodium acetate adjusted to pH 5.0 with sulphuric acid. Stock solution of 0.50 mg/ml in 96% ethanol was prepared of nicotine, chlorogenic acid, rutin, and scopoletin. A stock solution of 0.31 mg enzyme protein/ml of laccase in de-mineralised water was prepared. The HP diode array spectrophotometer was operated as per the manufacturer's instructions. A 1 cm quartz cuvette was used. As a blank was used 950µl buffer mixed with 50µl 96% ethanol. In a 1 cm quart cuvette was mixed 900µl 10 mM acetate buffer and 50µl of the stock solution of the compound in question. A spectrum of the "native" compound was recorded in the range 190-700 nm. 50µl of TvL stock solution was added and carefully mixed, and spectra in the range 190-700 nm were recorded every 20 seconds for 5 minutes.

Where [3] appears, read: 5 min, 52.0 °C, 4.1 µg/ml MtL, 3.0 kg/100 litre scale.
The mark [4] stands for this setting: 5 minutes, 56.2 °C, MtL, 6.0 kg/200 litre scale.
[5] abbreviates: 10 min, 50.3 °C, 4.1 µg/ml MtL, 3.0 kg/100 litre scale.
Setting [6] is: 10 minutes, 55.8 °C, MtL, 6.0 kg/200 litre scale.
The mark [7] stands for this setting: 15 min, 48.8 °C, 4.1 µg/ml MtL, 3.0 kg/100 litre scale.
Setting [8] is: 15 minutes, 55.2 °C, MtL, 6.0 kg/200 litre scale.
Setting [9] is: 20 min, 47.4 °C, 4.1 µg/ml MtL, 3.0 kg/100 litre scale.
Where [10] appears, read: 20 minutes, 54.5 °C, MtL, 6.0 kg/200 litre scale.
[11] abbreviates: 30 min, 45.0 °C, 4.1 µg/ml MtL, 3.0 kg/100 litre scale.
The mark [12] stands for this setting: 30 minutes, 53.5 °C, MtL, 6.0 kg/200 litre scale.
Where [13] appears, read: 45 min, 41.9 °C, 4.1 µg/ml MtL, 3.0 kg/100 litre scale.
[14] abbreviates: 45 minutes, 52.2 °C, MtL, 6.0 kg/200 litre scale.
[15] abbreviates: 60 min, 39.1 °C, 4.1 µg/ml MtL, 3.0 kg/100 litre scale.
[16] abbreviates: 60 minutes, 51.0 °C, MtL, 6.0 kg/200 litre scale.
Where [17] appears, read: Extract after MtL treatment, 4.1 µg/ml MtL, 20 minutes at 55°C, intense aeration.
Where [18] appears, read: Extract after MtL- and bentonite treatment and separation by centrifugation, 4.1 µg/ml MtL 20 minutes at 55°C, bentonite 1 g/L 10 minutes at 50°C.

As for `O=C(C=Cc1ccc(O)c(O)c1)OC1CC(O)(C(=O)O)CC(O)C1O` (stereo not drawn) [CA, 3-[[3-(3,4-Dihydroxyphenyl)-1-oxo-2-propenyl]oxy]1,4,5-trihydroxycyclohexanecarboxylic acid], the “Content in tobacco extract during MtL treatment” value in assay [1] (setting [3]) is 0.036 mg/mL; in assay [1] (setting [4]), 0.0166 mg/mL; in assay [1] (setting [5]), “BDL”; in assay [1] (setting [6]), 0.0138 mg/mL; in assay [1] (setting [7]) it was “BDL”; in assay [1] (setting [8]), “BDL”. The “Content in tobacco extract during MtL treatment” value in assay [1] (setting [9]), in assay [1] (setting [10]), in assay [1] (setting [11]), in assay [1] (setting [12]), in assay [1] (setting [13]) and in assay [1] (setting [14]) was “BDL” in each case. Further, the “Content in tobacco extract during MtL treatment” value in assay [1] (setting [15]) and in assay [1] (setting [16]) was “BDL” in each case. In addition, the “phenolic compound content of tobacco extract” value in assay [1] (setting [17]) and in assay [1] (setting [18]) was “BDL” throughout.

In the case of `COc1cc2ccc(=O)oc2cc1O` [S, 7-Hydroxy-6-methoxy-2H-1-benzopyran-2-one], the “spectral changes (peak position and peak relative height)” value in assay [2] is “significant spectral changes”. The “Content in tobacco extract during MtL treatment” value came out at 0.0063 mg/mL in assay [1] (setting [3]); 0.0101 mg/mL in assay [1] (setting [4]); 0.0027 mg/mL in assay [1] (setting [5]); 0.0090 mg/mL in assay [1] (setting [6]); 0.0014 mg/mL in assay [1] (setting [7]); 0.0078 mg/mL in assay [1] (setting [8]). Also, the “Content in tobacco extract during MtL treatment” value in assay [1] (setting [9]) turned out to be 0.0010 mg/mL; in assay [1] (setting [10]) it was 0.0054 mg/mL; in assay [1] (setting [11]) it was 0.0010 mg/mL; in assay [1] (setting [12]), 0.0043 mg/mL; in assay [1] (setting [13]) it was 0.0010 mg/mL; in assay [1] (setting [14]), 0.0020 mg/mL. In addition, the “Content in tobacco extract during MtL treatment” value in assay [1] (setting [15]) is 0.0010 mg/mL; in assay [1] (setting [16]), 0.0019 mg/mL. The entries for the “phenolic compound content of tobacco extract” value in assay [1] (setting [17]) and in assay [1] (setting [18]) were 0.0047 mg/mL and 0.0017 mg/mL, respectively.
